According to ChEMBL document CHEMBL1152121, “Improvement of water solubility of non-competitive AMPA receptor antagonists by complexation with beta-cyclodextrin” (Bioorg Med Chem, 2008):
Values after ≈ are worked out from the molar mass of the structure shown.

Columns and labels:
[1] = Binding affinity to beta-cyclodextrin in aqueous solution after 72 hrs by phase-solubility measurements; format: ADME; details: buffer
[2] = Aqueous solubility of the compound; format: physicochemical; details: water

K [1] [M⁻¹]	solubility [2] [mM]	Structure (SMILES)
1079	3 (≈ 1040 µg/mL)	COc1cc2c(cc1OC)C(c1ccc(Cl)cc1)N(C(C)=O)CC2 (racemic)
15889	5 (≈ 1730 µg/mL)	COc1cc2c(cc1OC)[C@@H](c1ccc(Cl)cc1)N(C(C)=O)CC2
